Ki data for two compounds are collected here from BindingDB's records for doi:10.1016/j.bmc.2008.11.012 (Nippon Shinyaku, 2009).

pKi: −log10 of the molar value.

One test addresses Mu-type opioid receptor (Rattus norvegicus, UniProt P33535). Nature of the test: Receptor Binding Assay. The protocol: (§1) Competitive binding displacement analysis was performed with membranes prepared from CHO-K1 cells stably expressing receptors. After incubation, samples were collected on GF/B glass-fiber, washed, and counted for radioactivity. IC50 values were obtained by fitting the competition binding curves according to a 4-parameter logistic model. Inhibition constants Ki were derived from the Cheng-Prusoff equation.

Another test addresses Nociceptin receptor (Homo sapiens, UniProt P41146). The experiment in a line: Receptor Binding Assay. To be noted: pH 7.8; 25 °C. The protocol: as §1

Sequence of Nociceptin receptor (P41146 whole entry): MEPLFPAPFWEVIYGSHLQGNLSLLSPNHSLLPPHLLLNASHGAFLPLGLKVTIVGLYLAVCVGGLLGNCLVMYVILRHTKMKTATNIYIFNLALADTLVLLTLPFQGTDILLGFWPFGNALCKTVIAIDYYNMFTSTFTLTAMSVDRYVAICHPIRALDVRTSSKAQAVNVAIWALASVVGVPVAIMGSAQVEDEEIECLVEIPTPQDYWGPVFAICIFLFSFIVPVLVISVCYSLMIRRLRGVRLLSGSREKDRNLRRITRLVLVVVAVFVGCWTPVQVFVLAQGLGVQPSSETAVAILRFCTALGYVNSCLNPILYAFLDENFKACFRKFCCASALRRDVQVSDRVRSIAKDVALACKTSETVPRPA
Sequence of Mu-type opioid receptor (P33535 whole entry): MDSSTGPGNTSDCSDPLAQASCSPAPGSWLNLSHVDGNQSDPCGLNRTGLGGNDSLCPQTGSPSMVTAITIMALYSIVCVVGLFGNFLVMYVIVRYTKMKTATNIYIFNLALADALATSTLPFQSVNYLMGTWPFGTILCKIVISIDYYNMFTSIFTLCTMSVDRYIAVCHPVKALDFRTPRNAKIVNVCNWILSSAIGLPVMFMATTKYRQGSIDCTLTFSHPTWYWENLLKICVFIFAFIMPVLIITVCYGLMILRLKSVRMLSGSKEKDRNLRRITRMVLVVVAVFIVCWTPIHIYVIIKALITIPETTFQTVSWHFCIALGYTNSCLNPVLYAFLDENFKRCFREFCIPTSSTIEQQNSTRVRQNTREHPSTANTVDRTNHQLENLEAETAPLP

For `Cc1ccc2nc(C=Cc3ccc(Cl)cc3)nc(N[C@H]3CCCC[C@H]3NC(=N)N)c2c1` (racemic) [(1R,2S)-2-({2-[(E)-2-(4-chlorophenyl)ethenyl]-6-methylquinazolin-4-yl}amino)cyclohexane-1-guanidine], the pKi was 6.66 at Mu-type opioid receptor and 7.37 on Nociceptin receptor.
For `Cc1ccc2nc(C=Cc3ccc(Cl)cc3)nc(N[C@H]3CC[C@@H](N=C(N)N)CC3)c2c1` [4-({2-[(E)-2-(4-chlorophenyl)ethenyl]-6-methylquinazolin-4-yl}amino)cyclohexane-1-guanidine] the same measures were 7.22 and 6.82.
